Our source for the IC50, microsomal CLint and half-life values is patent US20210395256A1, “TYROSINE KINASE INHIBITORS, COMPOSITIONS AND METHODS THERE OF” (Betta Pharmaceuticals Co., Ltd., priority 2018, published 2021).

Series [1] deals with TrkA kinase (Homo sapiens, UniProt P04629). The series can be described thus: TrkA kinase assay (mobility shift assay). To be noted: read-out: Trk A Kinase IC50. It counts as biochemical. In a few lines: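 Ten-point compound series was preincubated 10 min at room temperature with TrkA, then FAM-peptide plus ATP added in HEPES pH 7.5/Brij-35 buffer and reacted at 28 °C before EDTA quench.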
TrkA kinase, sequence (P04629 33-796): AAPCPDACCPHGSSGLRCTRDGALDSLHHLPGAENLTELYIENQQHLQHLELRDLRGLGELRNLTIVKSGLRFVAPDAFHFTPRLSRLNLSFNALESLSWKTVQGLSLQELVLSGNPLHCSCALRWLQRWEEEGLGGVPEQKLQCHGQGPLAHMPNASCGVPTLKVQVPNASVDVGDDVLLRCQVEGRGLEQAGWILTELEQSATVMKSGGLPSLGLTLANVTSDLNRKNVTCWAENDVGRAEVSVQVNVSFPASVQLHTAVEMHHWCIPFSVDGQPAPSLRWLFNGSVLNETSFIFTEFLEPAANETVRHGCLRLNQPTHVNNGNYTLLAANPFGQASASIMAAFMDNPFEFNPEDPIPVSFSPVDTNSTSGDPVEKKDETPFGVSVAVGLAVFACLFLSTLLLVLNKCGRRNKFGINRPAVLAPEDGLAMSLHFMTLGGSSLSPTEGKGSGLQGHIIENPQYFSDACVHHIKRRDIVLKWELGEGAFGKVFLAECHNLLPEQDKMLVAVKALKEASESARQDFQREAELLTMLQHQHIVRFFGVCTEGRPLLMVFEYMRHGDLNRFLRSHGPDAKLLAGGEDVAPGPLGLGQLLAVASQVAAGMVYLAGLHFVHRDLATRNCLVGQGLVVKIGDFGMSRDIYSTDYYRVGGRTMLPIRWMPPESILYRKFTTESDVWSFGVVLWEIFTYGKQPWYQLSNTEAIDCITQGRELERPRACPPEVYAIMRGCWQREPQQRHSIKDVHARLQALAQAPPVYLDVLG

Series [2] is described as follows: Liver microsomes metabolic stability assay, mouse. In kind it is in vitro ADME. To be noted: male, mouse liver microsomes 0.5 mg/mL, 37° C.; for half-life at 2 μM: read-out: t1/2 Mouse. In a few lines:
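Pooled human, male rat or male mouse liver microsomes (0.5 mg/mL final) incubated at 37° C with 2 μM compound, with or without 1 mM NADPH. Samples at 0-60 min quenched in cold acetonitrile and analyzed by LC-MS/MS in duplicate. t1/2 derived from ln(% remaining) vs time slope, converted to CLint (μL/min/mg).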
For orientation: Liver microsomes are a subcellular fraction often used to study metabolism.

SMILES strings stand for the structures. Read-outs that look alike come from different tables or passages of the source.

Take `OC1CC(c2nnc(-c3cnn4ccc(N5CCC[C@@H]5c5cc(F)ccc5F)nc34)[nH]2)C1` (stereo partly drawn) [Compound 31, (R)-3-(5-(5-(2-(2,5-difluorophenyl)pyrrolidin-1-yl)pyrazolo[1,5-a]pyrimidin-3-yl)-4H-1,2,4-triazol-3-yl)cyclobutan-1-ol]: the IC50 in series [1] (numeric values) stood at 2.3 nM. In series [2], the microsomal CLint at 2 μM amounted to 37 µL/min/mg and the half-life at 2 μM was 37.4 min.
For `C[C@H](O)c1nnc(-c2cnn3ccc(N4CCC[C@@H]4c4cc(F)ccc4F)nc23)[nH]1` [Compound 4, (S)-1-(5-(5-((R)-2-(2,5-difluorophenyl)pyrrolidin-1-yl)pyrazolo[1,5-a]pyrimidin-3-yl)-4H-1,2,4-triazol-3-yl)ethan-1-ol] the same measures were 1.37 nM, 96.4 µL/min/mg and 14.4 min.
For `Cc1nnc(-c2cnn3ccc(N4CCCC4c4cc(F)ccc4F)nc23)[nH]1` (centres unmarked) [Comparative compound A, 5-[2-(2,5-Difluorophenyl)pyrrolidin-1-yl]-3-(5-methyl-1H-1,2,4-triazol-3-yl)pyrazolo[1,5-a]pyrimidine, reference compound], in series [2], the intrinsic metabolic clearance (microsomal CLint) at 2 μM came out at 214 µL/min/mg and the half-life at 2 μM was found to be 6.47 min.
`CC(C)(O)c1nnc(-c2cnn3ccc(N4CCC[C@@H]4c4cc(F)ccc4F)nc23)[nH]1` [Compound 7, (R)-2-(5-(5-(2-(2,5-difluorophenyl)pyrrolidin-1-yl)pyrazolo[1,5-a]pyrimidin-3-yl)-4H-1,2,4-triazol-3-yl)propan-2-ol]: the IC50 in series [1] (numeric values) turned out to be 0.68 nM. Also, in series [2], the microsomal CLint at 2 μM turned out to be 19.4 µL/min/mg and the half-life at 2 μM stood at 71.5 min.
For `C[C@@H](CO)c1nnc(-c2cnn3ccc(N4CCC[C@@H]4c4cc(F)ccc4F)nc23)[nH]1` [Compound 39, (R)-2-(5-(5-((R)-2-(2,5-difluorophenyl)pyrrolidin-1-yl)pyrazolo[1,5-a]pyrimidin-3-yl)-4H-1,2,4-triazol-3-yl)propan-1-ol] the same measures were 1.26 nM, 41.4 µL/min/mg and 33.5 min.
With `OC(c1nnc(-c2cnn3ccc(N4CCC[C@@H]4c4cc(F)ccc4F)nc23)[nH]1)C(F)(F)F` (stereo partly drawn) [Compound 47, 1-(5-(5-((R)-2-(2,5-difluorophenyl)pyrrolidin-1-yl)pyrazolo[1,5-a]pyrimidin-3-yl)-4H-1,2,4-triazol-3-yl)-2,2,2-trifluoroethan-1-ol], in series [1] (numeric values), the IC50 is 3.23 nM.
In the case of `OC1(c2nnc(-c3cnn4ccc(N5CCC[C@@H]5c5cc(F)ccc5F)nc34)[nH]2)CCC1` [Compound 23, (R)-1-(5-(5-(2-(2,5-difluorophenyl)pyrrolidin-1-yl)pyrazolo[1,5-a]pyrimidin-3-yl)-4H-1,2,4-triazol-3-yl)cyclobutan-1-ol], the IC50 in series [1] (numeric values) turned out to be 2.3 nM. In series [2], the microsomal CLint at 2 μM is 48.6 µL/min/mg and the half-life at 2 μM came out at 28.5 min.
For `CC(C)(O)Cc1nnc(-c2cnn3ccc(N4CCC[C@@H]4c4cc(F)ccc4F)nc23)[nH]1` [Compound 30, (R)-1-(5-(5-(2-(2,5-difluorophenyl)pyrrolidin-1-yl)pyrazolo[1,5-a]pyrimidin-3-yl)-4H-1,2,4-triazol-3-yl)-2-methylpropan-2-ol] the same measures were 4.9 nM, 35.6 µL/min/mg and 38.9 min.
Consider `C[C@H](N)c1nnc(-c2cnn3ccc(N4CCC[C@@H]4c4cc(F)ccc4F)nc23)[nH]1` [Compound 11, (S)-1-(5-(5-((R)-2-(2,5-difluorophenyl)pyrrolidin-1-yl)pyrazolo[1,5-a]pyrimidin-3-yl)-4H-1,2,4-triazol-3-yl)ethan-1-amine], for which the IC50 in series [1] (class symbols) was at most 10 nM. Further, in series [2], the intrinsic clearance (microsomal CLint) at 2 μM was found to be 61.9 µL/min/mg.

By IC50 is commonly meant the concentration at which inhibition is half-maximal. The microsomal CLint is the rate of metabolic loss divided by the concentration. A high value points to rapid turnover.
